Test results taken from the NIST ThermoML archive (doi:10.1021/acs.jced.6b00750).
± gives the expanded uncertainty stated by the source.

Conditions: Liquid; for mass density: Vibrating wire densiometer; for viscosity: Vibrating wire viscometry

CCCCCCCCCCCCCCCC [hexadecane]
Conditions | mass density [kg/m3] | viscosity [mPa·s]
298.36 K, 1060 kPa | 769.2 ± 2.3 | 3.107 ± 0.065
298.36 K, 1080 kPa | 769.2 ± 2.3 | 3.109 ± 0.065
298.36 K, 10010 kPa | 775 ± 2.3 | 3.497 ± 0.072
298.36 K, 21090 kPa | 781.2 ± 2.3 | 4.032 ± 0.084
298.36 K, 30500 kPa | 786.4 ± 2.4 | 4.534 ± 0.094
298.61 K, 970 kPa | 768.9 ± 2.3 | 3.143 ± 0.065
298.61 K, 10340 kPa | 774.7 ± 2.3 | 3.562 ± 0.073
298.61 K, 20570 kPa | 780.8 ± 2.3 | 4.041 ± 0.084
298.61 K, 30370 kPa | 785.9 ± 2.4 | 4.588 ± 0.094
323.21 K, 1090 kPa | 751.5 ± 2.3 | 1.874 ± 0.04
323.21 K, 1250 kPa | 751.7 ± 2.3 | 1.872 ± 0.04
323.21 K, 21100 kPa | 765.2 ± 2.3 | 2.387 ± 0.05
323.21 K, 40990 kPa | 776.9 ± 2.3 | 2.957 ± 0.061
323.21 K, 60490 kPa | 787.1 ± 2.4 | 3.598 ± 0.075
323.21 K, 80320 kPa | 796 ± 2.4 | 4.381 ± 0.091
323.21 K, 102810 kPa | 803.3 ± 2.4 | 5.08 ± 0.11
323.22 K, 990 kPa | 752.4 ± 2.3 | 1.878 ± 0.04
323.22 K, 20960 kPa | 764.8 ± 2.3 | 2.429 ± 0.051
323.22 K, 42100 kPa | 777.2 ± 2.3 | 3.007 ± 0.062
323.22 K, 61170 kPa | 787.4 ± 2.4 | 3.666 ± 0.076
323.22 K, 81170 kPa | 796 ± 2.4 | 4.471 ± 0.092
348.2 K, 610 kPa | 734.8 ± 2.2 | 1.275 ± 0.027
348.2 K, 1010 kPa | 734.4 ± 2.2 | 1.255 ± 0.027
348.2 K, 1070 kPa | 734.5 ± 2.2 | 1.251 ± 0.027
348.2 K, 20050 kPa | 749.2 ± 2.3 | 1.57 ± 0.033
348.2 K, 20370 kPa | 749.8 ± 2.3 | 1.595 ± 0.033
348.2 K, 40520 kPa | 762.5 ± 2.3 | 1.939 ± 0.041
348.2 K, 40780 kPa | 762.9 ± 2.3 | 1.97 ± 0.041
348.2 K, 60680 kPa | 773.7 ± 2.3 | 2.356 ± 0.049
348.2 K, 62000 kPa | 773.9 ± 2.3 | 2.398 ± 0.05
348.2 K, 80380 kPa | 783.3 ± 2.4 | 2.813 ± 0.059
348.2 K, 80450 kPa | 783.5 ± 2.4 | 2.806 ± 0.059
348.2 K, 100940 kPa | 791.9 ± 2.4 | 3.278 ± 0.068
373.12 K, 1210 kPa | 717.2 ± 2.2 | 0.911 ± 0.02
373.12 K, 1240 kPa | 717.3 ± 2.2 | 0.91 ± 0.02
373.12 K, 20080 kPa | 733.9 ± 2.2 | 1.136 ± 0.024
373.12 K, 40700 kPa | 748.6 ± 2.2 | 1.397 ± 0.029
373.12 K, 60760 kPa | 760.8 ± 2.3 | 1.678 ± 0.035
373.12 K, 80760 kPa | 771.3 ± 2.3 | 1.988 ± 0.042
373.12 K, 100220 kPa | 780.9 ± 2.3 | 2.303 ± 0.048
373.25 K, 1370 kPa | 717.7 ± 2.2 | 0.926 ± 0.02
373.25 K, 19850 kPa | 733.7 ± 2.2 | 1.148 ± 0.024
373.25 K, 40190 kPa | 748.6 ± 2.2 | 1.399 ± 0.029
373.25 K, 59970 kPa | 760.4 ± 2.3 | 1.692 ± 0.035
373.25 K, 81310 kPa | 771.4 ± 2.3 | 1.995 ± 0.042
398.21 K, 1230 kPa | 700.1 ± 2.1 | 0.693 ± 0.015
398.21 K, 1670 kPa | 700.4 ± 2.1 | 0.694 ± 0.015
398.21 K, 20450 kPa | 719.1 ± 2.2 | 0.872 ± 0.019
398.21 K, 40750 kPa | 735.1 ± 2.2 | 1.066 ± 0.023
398.21 K, 60560 kPa | 748.2 ± 2.2 | 1.265 ± 0.027
398.21 K, 80390 kPa | 759.4 ± 2.3 | 1.488 ± 0.031
398.21 K, 100460 kPa | 769.4 ± 2.3 | 1.71 ± 0.036
398.28 K, 1050 kPa | 700.3 ± 2.1 | 0.697 ± 0.015
398.28 K, 21190 kPa | 719.6 ± 2.2 | 0.879 ± 0.019
398.28 K, 41290 kPa | 735.3 ± 2.2 | 1.082 ± 0.023
398.28 K, 59990 kPa | 747.8 ± 2.2 | 1.267 ± 0.027
398.28 K, 80670 kPa | 759.3 ± 2.3 | 1.498 ± 0.031
423.26 K, 1360 kPa | 682.2 ± 2.1 | 0.542 ± 0.012
423.26 K, 1420 kPa | 682.4 ± 2.1 | 0.544 ± 0.012
423.26 K, 20790 kPa | 704.2 ± 2.1 | 0.691 ± 0.015
423.26 K, 40900 kPa | 721.5 ± 2.2 | 0.845 ± 0.018
423.26 K, 60040 kPa | 735.2 ± 2.2 | 0.998 ± 0.021
423.26 K, 80490 kPa | 747.7 ± 2.2 | 1.171 ± 0.025
423.26 K, 100020 kPa | 758.2 ± 2.3 | 1.348 ± 0.028
423.31 K, 1460 kPa | 682.9 ± 2.1 | 0.554 ± 0.012
423.31 K, 20610 kPa | 704.4 ± 2.1 | 0.699 ± 0.015
423.31 K, 40760 kPa | 721.8 ± 2.2 | 0.853 ± 0.018
423.31 K, 60120 kPa | 735.2 ± 2.2 | 1.012 ± 0.022
423.31 K, 80990 kPa | 748.2 ± 2.2 | 1.189 ± 0.025
448.23 K, 1100 kPa | 664 ± 2 | 0.437 ± 0.01
448.23 K, 1170 kPa | 664.1 ± 2 | 0.438 ± 0.01
448.23 K, 20220 kPa | 688.7 ± 2.1 | 0.559 ± 0.013
448.23 K, 40500 kPa | 708.1 ± 2.1 | 0.689 ± 0.015
448.23 K, 60460 kPa | 723.5 ± 2.2 | 0.82 ± 0.018
448.23 K, 80430 kPa | 736.5 ± 2.2 | 0.958 ± 0.02
448.23 K, 100270 kPa | 748 ± 2.2 | 1.098 ± 0.023
448.48 K, 1230 kPa | 663.8 ± 2 | 0.445 ± 0.01
448.48 K, 20750 kPa | 688.9 ± 2.1 | 0.571 ± 0.013
448.48 K, 40680 kPa | 707.8 ± 2.1 | 0.702 ± 0.015
448.48 K, 60650 kPa | 723.1 ± 2.2 | 0.831 ± 0.018
448.48 K, 80720 kPa | 736.2 ± 2.2 | 0.97 ± 0.021
473.54 K, 1250 kPa | 645.4 ± 2 | 0.359 ± 0.01
473.54 K, 1270 kPa | 645.8 ± 1.9 | 0.36 ± 0.009
473.54 K, 20770 kPa | 674.2 ± 2 | 0.469 ± 0.011
473.54 K, 40980 kPa | 695.3 ± 2.1 | 0.579 ± 0.013
473.54 K, 60770 kPa | 711.8 ± 2.1 | 0.688 ± 0.015
473.54 K, 80500 kPa | 725.5 ± 2.2 | 0.803 ± 0.017
473.54 K, 101080 kPa | 738.1 ± 2.2 | 0.924 ± 0.02
473.85 K, 1400 kPa | 645.2 ± 1.9 | 0.367 ± 0.009
473.85 K, 21260 kPa | 674.3 ± 2 | 0.478 ± 0.011
473.85 K, 41040 kPa | 694.7 ± 2.1 | 0.59 ± 0.013
473.85 K, 61190 kPa | 711.3 ± 2.1 | 0.706 ± 0.015
473.85 K, 81710 kPa | 725.7 ± 2.2 | 0.815 ± 0.018
